Test results taken from paper PMC7180134 (Angewandte Chemie (International ed. in English), 2020).

Target: T1, human NTH1 (hNTH1, endonuclease III-like protein 1) (Homo sapiens, UniProt P78549)
T1 sequence (P78549 23-304): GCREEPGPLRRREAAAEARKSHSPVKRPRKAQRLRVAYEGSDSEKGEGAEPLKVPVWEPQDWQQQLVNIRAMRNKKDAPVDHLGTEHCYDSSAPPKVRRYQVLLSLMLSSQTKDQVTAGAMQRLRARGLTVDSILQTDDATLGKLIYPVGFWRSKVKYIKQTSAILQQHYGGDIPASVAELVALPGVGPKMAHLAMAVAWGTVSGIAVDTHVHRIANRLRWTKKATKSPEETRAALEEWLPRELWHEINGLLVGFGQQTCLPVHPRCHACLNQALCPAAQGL
Format: biochemical

- IC50: 780 nM
SMILES: Nc1ncnc2c1c(-c1cccc(OCc3ccccc3)c1)cn2[C@H]1C[C@@H](CN2CCC2)C1 [NVP-AEW541]
